In ChEMBL document CHEMBL3046210, “6-Imino-2-thioxo-pyrimidinones as a new class of dipeptidyl peptidase IV inhibitors” (Med Chem Res, 2011) one finds Activity data, which are given here for eight compounds.

Molecules are shown by their SMILES.

Data set [1] has as its system THP-1. The data set is described as follows: Cytotoxicity against Homo sapiens (human) THP1 cells up to 0.1 mM after 24 hr by MTS assay. It counts as cell-based. The settings on record: thp-1, 24 h. For orientation: Formazan colour is commonly taken as a measure of viable cells.
The test system of data set [2] is HepG2. The data set is described as follows: Cytotoxicity against Homo sapiens (human) HepG2 cells up to 0.1 mM after 24 hr by MTS assay. The class given is cell-based. The following applies: hepg2, 24 h.

Regarding `COc1cc(CC2C(=N)NC(=S)NC2=O)cc(OC)c1OC` (stereo unspecified), the Activity entry in data set [1] and in data set [2] was “Non-toxic” throughout.

For the compound `CCCCC1(Cc2cc(OC)c(OC)c(OC)c2)C(=N)NC(=S)NC1=O` (stereo unspecified), the Activity result in data set [1] and in data set [2] was “Non-toxic” in each case.

For the compound `CCC1(Cc2cc(OC)c(OC)c(OC)c2)C(=N)NC(=S)NC1=O` (stereo unspecified), the Activity entry in data set [1] and in data set [2] was “Non-toxic” in each case.

Consider `C=CCC1(Cc2cc(OC)c(OC)c(OC)c2)C(=N)NC(=S)NC1=O` (stereo unspecified), for which the Activity entry in data set [1] and in data set [2] was “Non-toxic” each time.

Regarding `COc1cc(CC2(C(C)C)C(=N)NC(=S)NC2=O)cc(OC)c1OC` (stereo unspecified), the Activity entry in data set [1] and in data set [2] was “Non-toxic” each time.

Consider `COc1cc(CC2(C)C(=N)NC(=S)NC2=O)cc(OC)c1OC` (stereo unspecified), for which the Activity entry in data set [1] and in data set [2] was “Non-toxic” in each case.

`CCCC1(Cc2cc(OC)c(OC)c(OC)c2)C(=N)NC(=S)NC1=O` (stereo unspecified): the Activity entry in data set [1] and in data set [2] was “Non-toxic” in each case.

For `COc1cc(CC2(Cc3cc(OC)c(OC)c(OC)c3)C(=N)NC(=S)NC2=O)cc(OC)c1OC`, the Activity result in data set [1] and in data set [2] was “Non-toxic” throughout.
